Consider three molecules from patent US5574026A, “Methods for inhibiting angiogenesis proliferation of endothelial or tumor cells and tumor growth” (American Cyanamid Company, priority 1994, dated 1996).

≈ marks a conversion by molar mass, not a printed value. Where a name gives a salt, the structure may show the parent alone.

The subject of one data set is A2780/DDP. Kind of data set: Antiproliferative activity in human tumor cell lines, PROTOCOL 1 and PROTOCOL 2. Particulars: ovarian tumor cell line /DDP, 48 hours, read-out: IC50. The data set is classed as cell-based. The procedure: (§1) The assays are identified as follows: PROTOCOLS 1, 2, and 3 are described in greater detail hereinbelow. In general, according to PROTOCOLS 1 and 2, the target ABAE and/or Human Tumor cells are exposed to the compounds of Formula I for 48 hours. PROTOCOL 3 exposes ABAE cells to the compounds for 4 days. A detailed description of the Protocols is as follows: Antiproliferative Activity in Human Tumor Cell Lines The antiproliferative activity of the compounds of Formula I of the present invention is evaluated in a panel comprised of human tumor cell lines. […] Cultures are renewed after 20 passages with cells from a fresh stock of batch-frozen early passage cells. Cell lines are routinely checked for mycoplasma contamination (Genprobe). In a laminar flow hood, cells (1-5×10^4) are plated into 96-well microtiter plates in a volume of 0.1 ml/well with a bulk microtiter dispenser (Denley). […] Compounds are added using a Tomtec dispenser which simultaneously dispenses from one 96-well plate, containing the drug dilutions, to the plates containing the cells. After two days of continuous drug exposure, 50% cold trichloroacetic acid (TCA) is added to 10% final concentration to fix the cells, and after 60 minutes at 4° C., the TCA is aspirated and the plates are washed 5 times with deionized water using a microtiter plate washer. […] A 0.4% solution of the dye, sulforhodamine B, in glacial acetic acid is added to the plates, and the plates are washed 5 times with 1% glacial acetic acid using the automatic plate washed. The bound stain is solubilized with 0.1 ml of 10 mMTris base. The optical densities are read from an automatic spectrophotometric plate reader (Dynatech) directly to a main frame computer (VAX 8600). Positive controls, that include standard chemotherapeutic drugs (i.e., adriamycin, cisplatin, etc.), are included in every experiment. Background optical density measurements (complete media--cells, and complete media+drug-cells) are automatically subtracted from the appropriate control and test wells. Mean values and standard errors are determined from duplicate wells. A measure is also made of the optical density at time when the drugs are added. The number of cells after treatment (P), as % of control, is calculated for every concentration of drug, as follows: [formula] wherein: T is optical density measurement for treated cells after 48 hours; C is optical density measurement for untreated cells after 48 hours; Co is optical density measurement for cells at the time of drug addition. IC50 of Growth inhibition is calculated from the sets of P values using the RS-1 data package (BBN Software). Antiproliferative Activity in Human Tumor and Adult Bovine Aortic Endothelial Cell Lines (ABAE) The antiproliferative activity of the compounds of Formula I is evaluated in a panel comprised of human tumor cell lines as listed in Protocol 1 as well as an adult bovine aortic endothelial cell line (ABAE). This assay is a modification of PROTOCOL 1.

The test system of the next data set is A2780S. Described as above. Conditions: ovarian tumor cell line A2780S, 48 hours, read-out: IC50. The data set is classed as cell-based. The procedure: as §1
A further data set concerns HTB 161. The data set is described as above. The data set is classed as cell-based. Conditions: HTB 161, 48 hours. The procedure: as §1
The test system of the next data set is SW620. The data set is described as above. The data set is classed as cell-based. Particulars: SW-620, colon tumor cell line SW620, 48 hours, read-out: IC50. The procedure:
(§2) The antiproliferative activity of the compounds of Formula I in an Adult Bovine Aortic Endothelial (ABAE) cell line and in Human Tumor cells lines is evaluated in three similar assays that measure growth inhibition. The assays are identified as follows:
(§3) PROTOCOLS 1, 2, and 3 are described in greater detail hereinbelow. In general, according to PROTOCOLS 1 and 2, the target ABAE and/or Human Tumor cells are exposed to the compounds of Formula I for 48 hours. PROTOCOL 3 exposes ABAE cells to the compounds for 4 days. A detailed description of the Protocols is as follows:
(§4) Antiproliferative Activity in Human Tumor Cell Lines
(§5) The antiproliferative activity of the compounds of Formula I of the present invention is evaluated in a panel comprised of human tumor cell lines. The human tumor cell lines are from
(§6) 2) Colon tumors: MIP, CACO2, and SW620.
(§7) All cell lines are maintained in log phase in RPMI 1640 media, supplemented with 5% fetal calf serum, penicillin/streptomycin and 2 mM L-glutamine. Cultures are renewed after 20 passages with cells from a fresh stock of batch-frozen early passage cells. Cell lines are routinely checked for mycoplasma contamination (Genprobe). In a laminar flow hood, cells (1-5×10^4) are plated into 96-well microtiter plates in a volume of 0.1 ml/well with a bulk microtiter dispenser (Denley). […] At this concentration, dimethylsulfoxide has no effect on cell growth. Compounds are added using a Tomtec dispenser which simultaneously dispenses from one 96-well plate, containing the drug dilutions, to the plates containing the cells. After two days of continuous drug exposure, 50% cold trichloroacetic acid (TCA) is added to 10% final concentration to fix the cells, and after 60 minutes at 4° C., the TCA is aspirated and the plates are washed 5 times with deionized water using a microtiter plate washer. The number of cells on the plate are quantitated using a protein dye-binding assay (Monks et al., 1991). A 0.4% solution of the dye, sulforhodamine B, in […] is added to the plates, and the plates are washed 5 times with 1% glacial acetic acid using the automatic plate washed. The bound stain is solubilized with 0.1 ml of 10 mMTris base. The optical densities are read from an automatic spectrophotometric plate reader (Dynatech) directly to a main frame computer (VAX 8600).
(§8) Positive controls, that include standard chemotherapeutic drugs (i.e., adriamycin, cisplatin, etc.), are included in every experiment.
(§9) Background optical density measurements (complete media--cells, and complete media+drug-cells) are automatically subtracted from the appropriate control and test wells. Mean values and standard errors are determined from duplicate wells. A measure is also made of the optical density at time when the drugs are added. The number of cells after treatment (P), as % of control, is calculated for every concentration of drug, as follows: [formula] wherein: T is optical density measurement for treated cells after 48 hours;
(§10) C is optical density measurement for untreated cells after 48 hours;
(§11) Co is optical density measurement for cells at the time of drug addition.
(§12) IC50 of Growth inhibition is calculated from the sets of P values using the RS-1 data package (BBN Software).
(§13) Antiproliferative Activity in Human Tumor and Adult Bovine Aortic Endothelial Cell Lines (ABAE)
(§14) The antiproliferative activity of the compounds of Formula I is evaluated in a panel comprised of human tumor cell lines as listed in Protocol 1 as well as an adult bovine aortic endothelial cell line (ABAE). This assay is a modification of PROTOCOL 1. The modifications include:
(§15) 1) each concentration for each compound is tested in a single well;
(§16) 2) compounds are tested at 20, 4, 0.8, 0.16 microgram/ml and additionally in some experiments at 100 and 0.32 microgram/ml;
(§17) 3) samples are pipetted into a 96-well plate for each of the cell lines by a Beckman Biomek 1000 SL robot; […]

For the next data set, the system named is Human Tumor cell lines. Kind of data set: Antiproliferative activity in panel of human tumor cell lines (average / panel as a whole), PROTOCOL 1 and PROTOCOL 2. The data set is classed as cell-based. Particulars: for IC50: Homo sapiens, average over the tumor cell lines tested. On the procedure: as §2, §3, §4, §5, §6, §7, §8, §9, §10, §11, §12, §13, §14, §15, §16, §17

Another data set relates to tumor. Conditions: Teicher et al; used in conjunction with cancer chemotherapy or radiation therapy; cited from earlier work.

Take `CN(C)[C@@H]1C(O)=C(C(N)=O)C(=O)[C@@]2(O)C(O)=C3C(=O)c4c(O)ccc(Br)c4CC3CC12` (stereo partly drawn) [Example 8, [4S-(4α,12aα)]-7-Bromo-4-(dimethylamino)-1,4,4a,5,5a,-6,11,12a-octahydro-3,10,12,12a-tetrahydroxy-1,11-dioxo-2-naphthacenecarboxamide sulfate]: the IC50 (usually the concentration that gives 50% inhibition) was found to be 0.6 mg/L in the data set on A2780/DDP; 0.6 mg/L with A2780S; 0.6 mg/L in the data set on HTB 161; 1.4 mg/L in the data set with SW620; 1.3 mg/L in the data set with Human Tumor cell lines. Moreover, the “inhibition of cell growth at the highest concentrations” value in the data set on Human Tumor cell lines (FIG. 2, 6 human tumor cell lines, in words) is recorded as “no 100% inhibition of cell growth”. In addition, the dead floating cells result in the data set with Human Tumor cell lines (even at the highest concentration) is recorded as “not observed”.

Regarding `CN(C)[C@@H]1C(O)=C(C(N)=O)C(=O)[C@@]2(O)C(O)=C3C(=O)c4c(O)ccc(I)c4CC3CC12` (stereo partly drawn) [Example 10, [4S-(4α,12aα)]-4-(Dimethylamino)-4,4,4a,5,5a,6,11,12a-octahydro-3,10,12,12a-tetrahydroxy-7-iodo-1,11-dioxo-2-naphthacenecarboxamide], the IC50 came out at 4 mg/L (≈ 7.4 µM) in the data set on A2780/DDP; 0.7 mg/L (≈ 1.3 µM) with A2780S; 0.7 mg/L (≈ 1.3 µM) in the data set with HTB 161; 1.2 mg/L (≈ 2.22 µM) in the data set with SW620; 1.7 mg/L (≈ 3.15 µM) with Human Tumor cell lines.

For the molecule `CN(C)c1ccc(O)c2c1C[C@H]1C[C@H]3[C@H](N(C)C)C(O)=C(C(N)=O)C(=O)[C@@]3(O)C(O)=C1C2=O` [Minocycline, reference compound], the IC50 with A2780/DDP worked out at 6.1 mg/L (≈ 13.3 µM). Moreover, in the data set with tumor, the “number of metastases with chemotherapy or radiation therapy” value is given as “the number of metastases is reduced” and the “tumor growth with chemotherapy or radiation therapy” value was “tumor growth is decreased”.
